Measured values published in patent US20120053112A1, “METHODS AND COMPOSITIONS RELATED TO THE REGULATION OF GOBLET CELL DIFFERENTIATION, MUCUS PRODUCTION AND MUCUS SECRETION” (CHILDREN'S HOSPITAL MEDICAL CENTER, priority 2009, published 2012).
Where “and” joins values, the source holds several entries; their conditions need not be identical. Equal values may be shown once. Entries after “also recorded” stand apart in the source; their conditions may differ.

Tests used:
[1] = test system: MUC5AC mRNA in Flag-SPDEF-GFP HBEC cells; assay: Effect of inhibitors on MUC5AC expression in SPDEF-expressing HBEC cells on air-liquid interface (real-time PCR); format: cell-based, human; details: for Inhibitor concentrations at which MUC5AC mRNA was not detected: SPDEF-expressing HBEC cells; for Concentration of dose curve with no detection of MUC5AC mRNA (starred): Flag-SPDEF-GFP HBEC on ALI, inhibitor added upon induction of ALI, RNA after 48 hours, TAQMAN real-time PCR, FIG. 19
Protocol: Inhibitors were added to media upon induction of ALI and RNA was isolated after 48 hours. (A) p38 MAPK inhibitor (SB239063) dose curve: 0.5, 1, 2.5, 5*, 10* μM. (B) PI3K inhibitor (LY294002) dose curve: 0.5, 1, 2.5, 5*, 10*, 25* μM. (C) mTor inhibitor (Rapamycin) dose curve: 1, 5, 10, 25, 50*, 100* nM. *=No detection of MUC5AC mRNA at these concentrations as determined by TAQMAN® real-time PCR (Applied Biosystems, Foster City, Calif.).
Expression levels of MUC5AC were measured in SPDEF-expressing HBEC cells treated with the p38 MAPK inhibitor SB239063. MUC5AC mRNA was quantitated by QRT-PCR. MUC5AC mRNA was not detected at inhibitor concentrations ≧5 uM.
Expression levels of MUC5AC in SPDEF-expressing HBEC cells treated with rapamycin. MUC5AC mRNA was not detected at inhibitor concentrations ≧50 nM.
Expression levels of MUC5AC in SPDEF-expressing HBEC cells treated with the PI3K inhibitor LY294002. MUC5AC mRNA was not detected at inhibitor concentrations ≧[…].
Using Agr2 as a readout of SPDEF, the effects of p38 MAPK inhibitor SB239063, PI3K inhibitor LY294002, and mTor inhibitor rapamycin in human bronchiolar epithelial cells (HBEC) were investigated. In vitro preparations were maintained at the ALI for 48 hours prior to taking Agr2 measurements.
To test for small molecule inhibitors, HBEC cells expressing lentiviral SPDEF constructs were treated with the p38 MAP kinase inhibitor, SB239063. MUC5AC mRNA was quantitated by QRT-PCR. SPDEF-dependent MUC5AC mRNA was inhibited by the p38 MAP kinase inhibitor (FIG. 22).

[2] = test system: mouse Agr2 1.6 Kb promoter; details: U0126 at 20 μM and 10 μM; 36 hour transfection, aSTEpC; DMSO vehicle control
Protocol: Thirty-six hour transfection of adult sheep tracheal epithelial cells (aSTEpC) with Agr2-luciferase and expression vectors encoding SPDEF and Foxa3. MAPK inhibitor (U0126) was added at a concentration of 20 μM and 10 μM (DMSO as vehicle control).
Thirty-six hour transfection of adult sheep tracheal epithelial cells (aSTEpCs) with Agr2-luciferase and expression vectors encoding SPDEF and Foxa3 were performed. A MAPK inhibitor (U0126) was added at a concentration of 20 μM and 10 μM (using DMSO as a vehicle control). MAPK inhibitor (U0126) effects on the activity of the mouse Agr2 1.6 Kb promoter were analyzed.
Promoter reporter constructs were co-transfected into primary sheep tracheal epithelial cells (aSTEpC) with CMV-13-Gal plasmid (Clontech, Palo Alto, Calif.) and/or transcription factor expression plasmid using Lipofectamine 2000 (Invitrogen, Carlsbad, Calif.) as previously described^6. Growth media was changed into a differentiation media (MTEC/Nu, mouse tracheal epithelial cells culture media, 2% Nu serum)^39 after transfection. Cell lysates were collected for luciferase activity assay 24 hours after transfection. All transfection assays were performed with primary sheep adult tracheal epithelial cells at passage 3 or 4. Relative promoter activities were normalized to transfection efficiency assayed by β-galactosidase activity and shown as mean±S.D.

[3] = test system: SPDEF in primary mouse tracheal epithelial cells; assay: IL-13 induction of SPDEF in primary mouse tracheal epithelial cells at air-liquid interface (immunohistochemistry); format: cell-based; details: IL-13 10 ng/ml; ALI culture, 3 and 7 days; FIG. 14
Protocol: Immunohistochemical staining of SPDEF in primary mouse tracheal epithelial cells cultured under an air-liquid interface (ALI) condition in the presence or absence of IL-13 (10 ng/ml). Expression of SPDEF was detected after 3 days (upper panel) and 7 days (lower panel) after ALI culture. Scale bar: 50 μm.
The air-liquid interface culture of mouse tracheal epithelial cells was performed as previously described^39. The mouse IL-13 used for in vitro culture was purchased from R&D System (Minneapolis, Minn.). The air-liquid interface culture of the HEBCs was similar to procedures previously described^40.

Molecule: O=c1cc(N2CCOCC2)oc2c(-c3ccccc3)cccc12 [LY294002]
- Inhibitor concentrations at which MUC5AC mRNA was not detected ([1]; QRT-PCR, FIGS. 22, 25): ≥ 10 µM

Molecule: CO[C@H]1C[C@@H]2CC[C@@H](C)[C@@](O)(O2)C(=O)C(=O)N2CCCC[C@H]2C(=O)O[C@H]([C@H](C)C[C@@H]2CC[C@@H](O)[C@H](OC)C2)CC(=O)[C@H](C)/C=C(\C)[C@@H](O)[C@@H](OC)C(=O)[C@H](C)C[C@H](C)/C=C/C=C/C=C/1C [Rapamycin]
- Concentration of dose curve with no detection of MUC5AC mRNA (starred) [1]: 50 nM and 100 nM
- Inhibitor concentrations at which MUC5AC mRNA was not detected ([1]; FIG. 24): ≥ 0.05 µM

Molecule: COc1nccc(-c2c(-c3ccc(F)cc3)ncn2C2CCC(O)CC2)n1 (centres unmarked) [SB239063]
- Concentration of dose curve with no detection of MUC5AC mRNA (starred) [1]: 5000 nM and 10000 nM
- Effect on SPDEF-mediated MUC5AC (Muc5A/C) activation / mRNA ([1]; HBEC in vitro, result in words): highly active; also recorded: inhibited
- Inhibitor concentrations at which MUC5AC mRNA was not detected ([1]; QRT-PCR, FIGS. 22, 25): ≥ 5 µM

Molecule: N#CC(=C(/N)Sc1ccccc1N)/C(C#N)=C(\N)Sc1ccccc1N [U0126]
- Effect on activation of SPDEF or Agr2 (Agr2 promoter luciferase activity) [2]: inhibited

B1: IL-13: mouse IL-13 cytokine purchased from R&D System, used for in vitro culture (protein, UniProt P20109 19-131, looked up)
Interleukin-13: APGPVPRSVSLPLTLKELIEELSNITQDQTPLCNGSMVWSVDLAAGGFCVALDSLTNISNCNAIYRTQRILHGLCNRKAPTTVSSLPDTKIEVAHFITKLLSYTKQLFRHGPF
- SPDEF expression [3]: dramatically induced
